According to article PMC2774691, “Fluorescent Cascade and Direct Assays for Characterization of RAF Signaling Pathway Inhibitors” (Current Chemical Genomics, 2008):

Columns and labels:
VEGFR3 = target: T1, VEGFR3 (Homo sapiens, UniProt P35916); test: FRET-based kinase profiling, VEGFR3; type: biochemical
T1 construct: purchased Invitrogen
Experimental: (§1) The buffer consisted of 50 mM HEPES pH 7.5, 10 mM MgCl2, 1 mM EGTA, 0.01% Brij-35. Kinase reactions were typically initiated by the addition of either ATP or the active kinase and allowed to proceed for 1 hour at room temperature (RT). Following the 1 hour kinase assay, 5 µL of development reagent was added and the development reaction allowed to progress for 1 hour at RT, essentially as described previously.

PDGFR α = target: T2, PDGFR α (Homo sapiens, UniProt P16234); test: FRET-based kinase profiling, PDGFR α; type: biochemical
T2 construct: purchased Invitrogen
Experimental: as §1

FLT3 = target: T3, FLT3 (Homo sapiens, UniProt P36888); test: FRET-based kinase profiling, FLT3; type: biochemical
T3 construct: purchased Invitrogen

PDGFR α D842V = target: T4, PDGFR α D842V (Homo sapiens, UniProt P16234, D842V); test: FRET-based kinase profiling, PDGFR α D842V; type: biochemical
T4 construct: purchased Invitrogen
Experimental: as §1

CRAF [1] = target: T5, CRAF (Homo sapiens, UniProt P04049, Y340D/Y341D); test: FRET-based kinase profiling, C-RAF; type: biochemical; details: 1 µM inhibitor, ATP at Km app
PDGFR α T674I = target: T6, PDGFR α T674I (Homo sapiens, UniProt P16234, T674I); test: FRET-based kinase profiling, PDGFR α T674I; type: biochemical
T6 construct: purchased Invitrogen
Experimental: as §1

RET = target: T7, RET (Homo sapiens, UniProt P07949); test: FRET-based kinase profiling, RET; type: biochemical
T7 construct: purchased Invitrogen
Experimental: as §1

RET Y791F = target: T8, RET Y791F (Homo sapiens, UniProt P07949, Y791F); test: FRET-based kinase profiling, RET Y791F; type: biochemical
T8 construct: purchased Invitrogen
Experimental: as §1

FLT3 D835Y = target: T9, FLT3 D835Y (Homo sapiens, UniProt P36888, D835Y); test: FRET-based kinase profiling, FLT3 D835Y; type: biochemical
T9 construct: purchased Invitrogen

RET V804L = target: T10, RET V804L (Homo sapiens, UniProt P07949, V804L); test: FRET-based kinase profiling, RET V804L; type: biochemical
T10 construct: purchased Invitrogen
Experimental: as §1

HIPK4 = target: T11, HIPK4 (Homo sapiens, UniProt Q8NE63); test: FRET-based kinase profiling, HIPK4; type: biochemical
T11 construct: purchased Invitrogen

[2] = tested on: B-RAF, B-RAF V599E, and C-RAF; test: RAF direct TR-FRET assays; type: biochemical; details: 100 μM ATP
Experimental: Development of the TR-FRET assay for RAF using a fluorescein-MEK1 substrate and terbium-labeled phospho-[Ser 217/221] MEK1 antibody has been described. Briefly, 200 nM of fluorescein-MEK1 was used as a substrate in a 10 µL assay. Reactions were conducted in the same 384-well plate type and kinase buffer as described for the FRET assays, initiated by the addition of ATP, and allowed to proceed for 1 hour at RT. After one hour, a 10 µL solution of EDTA and terbium-labeled phospho-[Ser 217/221] MEK1 antibody in 20 mM Tris, pH 7.5 and 0.01% NP-40 was added for a final well volume of 20 µL with final concentrations of antibody and EDTA at 2 nM and 10 mM, respectively. Following a 1 hour incubation at RT, plates were read as described previously. For TR-FRET-based assays, the average maximum signal to basal ratio ( ± standard deviation) obtained using eight different kinases was 8.9 ± 1.0. Inhibition assays were performed by adding 2.5 µL of inhibitor to a 5 µL solution of kinase and substrate, followed by 2.5 µL of ATP. […] The inhibitor studies were conducted in quadruplicate.

BRAF V599E-MEK1-ERK2 = test: B-RAF V599E-MEK1-ERK2 triple cascade FRET assay; type: biochemical; details: 100 μM ATP; read-out: Inhibitor IC50, FRET Triple BRAF V599E-MEK1-ERK2
CRAF-MEK1-ERK2 = test: C-RAF-MEK1-ERK2 triple cascade FRET assay; type: biochemical; details: 100 μM ATP; read-out: Inhibitor IC50, FRET Triple CRAF-MEK1-ERK2
MEK1-ERK2 = MEK1-ERK2 double cascade FRET assay; type: biochemical; details: 100 μM ATP; for IC50: read-out: Inhibitor IC50, FRET Double MEK1-ERK2; for inhibition of MEK1-ERK2 double cascade assay: FRET
BRAF-MEK1-ERK2 = test: B-RAF-MEK1-ERK2 triple cascade FRET assay; type: biochemical; details: 100 μM ATP; read-out: Inhibitor IC50, FRET Triple BRAF-MEK1-ERK2
ERK2 = target: T12, ERK2 (Homo sapiens, UniProt P28482); test: ERK2 direct FRET kinase assay; type: biochemical; details: 100 μM ATP; for IC50: read-out: Inhibitor IC50, FRET Direct ERK2; for inhibition of ERK2 direct assay: FRET
T12 construct: The following kinases were all full-length: B-RAF, unactive MEK1, active MEK1, unactive-fluorescein-labeled MEK1, active ERK2, and unactive ERK2; purchased Invitrogen
Experimental: FRET-based kinase data was processed in two steps. […] In order to apply equation 1, the 0% and 100% phosphorylation controls were used to establish the minimum and maximum emission ratio values on each assay plate. The 0% phosphorylation control was obtained from a mock kinase reaction run in the absence of ATP. The 100% phosphorylation control was obtained from a mock kinase reaction containing fully phosphorphorylated control peptide. The percent phosphorylation was calculated using the following equation: […]

[3] = tested on: B-RAF, B-RAF V599E, or C-RAF triple cascades; test: three RAF triple cascade FRET assays; type: biochemical; details: 100 μM ATP; for IC50: one value or range for the three RAF triple cascades
[4] = tested on: activation of MEK1 by C-RAF; details: ~300 nM MEK1 as substrate; read-out: IC50, inhibition of activation of MEK1 by C-RAF; cited from earlier work
BRAF V599E = target: T13, BRAF V599E (Homo sapiens, UniProt P15056, V600E); test: B-RAF V599E direct TR-FRET assay (fluorescein-MEK1 substrate); type: biochemical; details: 100 μM ATP; read-out: Inhibitor IC50, TR-FRET Direct BRAF V599E
T13 construct: amino acids 416-766 for B-RAF V599E and 306-648 for C-RAF; purchased Invitrogen
Experimental: (§2) Briefly, 200 nM of fluorescein-MEK1 was used as a substrate in a 10 µL assay. Reactions were conducted in the same 384-well plate type and kinase buffer as described for the FRET assays, initiated by the addition of ATP, and allowed to proceed for 1 hour at RT. […] MEK1 antibody in 20 mM Tris, pH 7.5 and 0.01% NP-40 was added for a final well volume of 20 µL with final concentrations of antibody and EDTA at 2 nM and 10 mM, respectively. Following a 1 hour incubation at RT, plates were read as described previously. […] Inhibition assays were performed by adding 2.5 µL of inhibitor to a 5 µL solution of kinase and substrate, followed by 2.5 µL of ATP. […] The inhibitor studies were conducted in quadruplicate.

BRAF = target: T14, BRAF (Homo sapiens, UniProt P15056); test: B-RAF direct TR-FRET assay (fluorescein-MEK1 substrate); type: biochemical; details: 100 μM ATP; read-out: Inhibitor IC50, TR-FRET Direct BRAF
T14 construct: The following kinases were all full-length: B-RAF, unactive MEK1, active MEK1, unactive-fluorescein-labeled MEK1, active ERK2, and unactive ERK2; purchased Invitrogen
Experimental: as §2

CRAF [5] = target: T5, CRAF; test: C-RAF direct TR-FRET assay (fluorescein-MEK1 substrate); type: biochemical; design: amino acids 416-766 for B-RAF V599E and 306-648 for C-RAF; purchased Invitrogen
Experimental: as §2

MEK1 = details: cited from earlier work
MEK1 activation = details: read-out: IC50, inhibition of MEK1 activation in Swiss 3T3 cells; cited from earlier work

IC50 [3] [nM] | Compound | IC50 (BRAF V599E-MEK1-ERK2) [nM] | IC50 (CRAF-MEK1-ERK2) [nM] | IC50 (MEK1-ERK2) [nM] | inhibition of MEK1-ERK2 double cascade assay (MEK1-ERK2) | IC50 (BRAF-MEK1-ERK2) [nM] | IC50 (ERK2) [nM] | inhibition of ERK2 direct assay (ERK2) | inhibition of B-RAF, B-RAF V599E and C-RAF TR-FRET direct assays [2] | also measured
– | CNC(=O)c1cc(Oc2ccc(NC(=O)Nc3ccc(Cl)c(C(F)(F)F)c3)cc2)ccn1 [BAY-43-9006, Sorafenib] | – | – | – | – | – | – | – | – | inhibition at 1 µM (VEGFR3): 40%; inhibition at 1 µM (PDGFR α): 33%; inhibition at 10 µM (PDGFR α): 75%; inhibition at 1 µM (FLT3): 89%; inhibition at 10 µM (PDGFR α D842V): 3%; % inhibition C-RAF (CRAF [1]): 50%; inhibition at 10 µM (PDGFR α T674I): 37%; inhibition at 1 µM (RET): 77%; inhibition at 1 µM (RET Y791F): 80%; inhibition at 1 µM (FLT3 D835Y): 45%; inhibition at 1 µM (RET V804L): 44%; inhibition at 1 µM (HIPK4): 45%
[…] | O=C1Nc2ccc(I)cc2/C1=C/c1cc(Br)c(O)c(Br)c1 [GW5074] | […] | […] | > 400 | no inhibition | 3 | > 400 | no inhibition | – | IC50 ([2]; range over the three RAF isoforms): […]; inhibition of the three RAF triple cascade assays ([3]; FRET): […]
– | CN[C@@H]1C[C@H]2O[C@@](C)([C@@H]1OC)n1c3ccccc3c3c4c(c5c6ccccc6n2c5c31)C(=O)NC4 [Staurosporine] | 69 | – | – | – | 56 | – | – | – | –
[…] | N#CC(=C(/N)Sc1ccccc1N)/C(C#N)=C(/N)Sc1ccccc1N [U0126] | […] | 66 | > 10000 | – | […] | > 50000 | – | very weak inhibitory activity | preferential inhibition of MEK1 activation over MEK1 (MEK1; radiometric kinase assays): ~ 100 fold; IC50 (MEK1; read-out: reported IC50, inhibition of MEK1): 13000 nM; IC50 (MEK1 activation): ~70 nM
– | Cc1ccc(NC(=O)c2cccc(N(C)C)c2)cc1NC(=O)c1ccc(O)cc1 [ZM336372] | 32 | 30 | > 50000 | no inhibition | 400 | > 50000 | no inhibition | – | –

Compound | IC50 [3] [nM] | IC50 (BRAF V599E-MEK1-ERK2) [nM] | IC50 (CRAF-MEK1-ERK2) [nM] | IC50 (MEK1-ERK2) [nM] | inhibition of MEK1-ERK2 double cascade assay (MEK1-ERK2) | IC50 (BRAF-MEK1-ERK2) [nM] | IC50 (ERK2) [nM] | inhibition of ERK2 direct assay (ERK2) | inhibition of B-RAF, B-RAF V599E and C-RAF TR-FRET direct assays [2] | also measured
COc1cccc(-c2cc(=O)c3ccccc3o2)c1N [PD98059] | 300 to 420 | 300 | 380 | > 50000 | no inhibition | 420 | > 50000 | no inhibition | did not inhibit | IC50 [4]: 2000 to 7000 nM; IC50 (BRAF V599E): > 50000 nM; IC50 (BRAF): > 50000 nM; IC50 (CRAF [5]; 100 μM ATP, read-out: Inhibitor IC50, TR-FRET Direct CRAF): > 50000 nM; inhibition of C-RAF in direct TR-FRET assay (CRAF [5]; fluorescein-labeled unactivated MEK1 substrate): neither U0126 nor PD98059 significantly inhibited C-RAF
